Laboratory results as given in PMC5607274, “An iterative compound screening contest method for identifying target protein inhibitors using the tyrosine-protein kinase Yes” (Scientific Reports, 2017).

Target: T1, human recombinant Yes [a.a. 2–543 (end)] (Homo sapiens, UniProt P07947)
T1 construct: human recombinant Yes [a.a; 2–543 (end)]; purchased BPS Bioscience 40488
Experiment: ADP-Glo kinase assay, inhibition rates of Yes phosphorylation activity (first and second screening)
Assay type: biochemical
Conditions: 10 μmol L−1 compound; for First screening IR (inhibition rate): mean of n = 4 wells
Outline: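 ADP-Glo luminescence measured inhibition of human recombinant Yes (a.a. 2–543) phosphorylation activity. In the first screen, each compound ran in 4 wells and inhibition rates were averaged. The second screen retested hits as compounds dissolved from fresh powder.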

T1 sequence (P07947 2-543): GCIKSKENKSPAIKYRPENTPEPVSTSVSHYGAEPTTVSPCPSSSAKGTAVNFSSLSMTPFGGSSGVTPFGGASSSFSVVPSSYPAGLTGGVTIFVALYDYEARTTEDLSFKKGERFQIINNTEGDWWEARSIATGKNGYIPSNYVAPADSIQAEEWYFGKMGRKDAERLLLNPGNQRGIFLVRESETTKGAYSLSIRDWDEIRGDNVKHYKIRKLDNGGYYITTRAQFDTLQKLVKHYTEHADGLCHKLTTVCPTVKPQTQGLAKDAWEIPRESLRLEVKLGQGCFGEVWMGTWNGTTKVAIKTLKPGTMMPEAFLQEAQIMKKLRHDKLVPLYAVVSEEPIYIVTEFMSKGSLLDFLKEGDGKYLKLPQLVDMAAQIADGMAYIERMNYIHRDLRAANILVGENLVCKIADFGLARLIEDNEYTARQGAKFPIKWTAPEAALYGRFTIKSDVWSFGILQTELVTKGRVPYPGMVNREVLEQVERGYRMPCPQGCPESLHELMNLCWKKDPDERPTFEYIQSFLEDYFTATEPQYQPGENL

Row | SMILES | First screening IR (inhibition rate) | Second screening IR (inhibition rate) (second screening, dissolved from fresh powder, n = 4)
1 | CC(C)CN(C1CCS(=O)(=O)C1)S(=O)(=O)c1ccc(Cl)c(Cl)c1 (stereo not shown) [Compound Z45480661] | 1% | –
2 | COCCn1cnc2c1c(=O)n(CC(=O)NC(=O)NC1CCCCC1C)c(=O)n2Cc1ccccc1 (stereo not shown) [Compound Z24102979] | -2% | –
3 | Cc1noc(C)c1CSc1ncnc2sc3c(c12)CCC(C)C3 (stereo not shown) [Compound Z16316201] | -8% | –
4 | CN(C)c1nc(N)nc(CSCc2nc3ccccc3s2)n1 [Compound Z232651876] | -13% | –
5 | Nc1c2c(nc3sc4c(c13)CCCC4)-c1ccccc1CC2 [Compound Z56772171] | -17% | –
6 | O=C(NCc1cn2ccsc2n1)C1CC1c1ccccc1C(F)(F)F (stereo not shown) [Compound Z333170264] | -2% | –
7 | CN1CCc2nc(NC(=O)CCC(=O)c3ccccc3)sc2C1 [Compound Z54410536] | -2% | –
8 | CN1CCC(N(c2ccccc2)S(=O)(=O)c2cc(Cl)cc3c2OCC3)CC1 [Compound Z1833465604] | 9% | –
9 | CCCCN(C1CCS(=O)(=O)C1)S(=O)(=O)c1ccc(Cl)c(Cl)c1 (stereo not shown) [Compound Z147580066] | 30% | –
10 | CN(C)C(C)(C)CNC(=O)Cc1c[nH]c2cccc(Br)c12 [Compound Z1509620411] | -4% | –
11 | CCN(CC)S(=O)(=O)c1ccc(NC(=O)CNC(=O)C23CC4CC(CC(C4)C2)C3)cc1 [Compound Z31827545] | 8% | –
12 | NC(=O)c1ccc2[nH]cc(C3CCN(C(=O)c4cccs4)CC3)c2c1 [Compound Z1624201749] | -35% | –
13 | CC1c2cc(Cl)cc(Cl)c2CCN1C(=O)c1cnc2n1CCCC2 (stereo not shown) [Compound Z1494913871] | 13% | –
14 | O=C(COC(=O)c1ccccc1NS(=O)(=O)c1ccc(F)cc1)NC1CCCc2ccccc21 (stereo not shown) [Compound Z18712040] | -7% | –
15 | O=C(c1ccc(=O)[nH]c1)N1CCN(C(=O)c2cc3ccccc3o2)CC1 [Compound Z368093014] | 48% | –
16 | CN(c1ccc(I)cc1)S(=O)(=O)c1cn[nH]c1 [Compound Z805651486] | -1% | –
17 | CCc1ccc(S(=O)(=O)N(C)C2CCS(=O)(=O)C2)cc1 (stereo not shown) [Compound Z89320983] | 10% | –
18 | CS(=O)(=O)C1CSCCN1S(=O)(=O)c1ccc(Br)cc1Cl (stereo not shown) [Compound Z1274438175] | -18% | –
19 | O=S1(=O)C=CC(Br)C1 (stereo not shown) [Compound Z56764753] | 3% | –
20 | Cc1cccc(-n2c(=O)c3ccccc3n3c(SCC(=O)NC(C)CCCC(C)C)nnc23)c1C (stereo not shown) [Compound Z113967060] | 15% | –

Row | SMILES | First screening IR (inhibition rate) | Second screening IR (inhibition rate) (second screening, dissolved from fresh powder, n = 4)
21 | CCn1c(=O)c2c(nc3n(-c4ccc(N(C)C)cc4)c(C)cn23)n(C)c1=O [Compound Z278205390] | 10% | –
22 | CCN(CC)S(=O)(=O)c1ccc(N2CCN(S(=O)(=O)c3ccccc3C#N)CC2)nc1 [Compound Z31169752] | 6% | –
23 | CC(Sc1n[nH]c(-c2cccs2)n1)c1nc2ccccc2c(=O)[nH]1 (stereo not shown) [Compound Z19451548] | 2% | –
24 | CC(C)n1ncc2c(C(=O)O)cc(-c3ccc4c(c3)OCCO4)nc21 [Compound Z56643642] | 2% | –
25 | CN(C)S(=O)(=O)CCCS(=O)(=O)Cc1ccc(Cl)cc1 [Compound Z1127660880] | -4% | –
26 | O=c1[nH]c(SCc2coc(-c3ccccc3)n2)nc2sccc12 [Compound Z228473210] | -4% | –
27 | CCN(CC)S(=O)(=O)c1ccc(N2CCc3c(sc(N)c3C#N)C2)c([N+](=O)[O-])c1 [Compound Z166707558] | 1% | –
28 | CCN(C(=O)CN1CCN(Cc2ccc3c(c2)OCO3)CC1)c1c(N)n(Cc2ccccc2)c(=O)[nH]c1=O [Compound Z46204583] | 4% | –
29 | COC(=O)/C(=C\C1=C2OC(c3ccccc3)=CC(c3ccccc3)=C2CCC1)C(C)=O [Compound Z56781644] | 7% | –
30 | Cc1nn(CC(C)C)c2sc(C(=O)Nc3nc(-c4ccccn4)cs3)cc12 [Compound Z29467100] | 0% | –
31 | Cc1c(C#N)c(NC(=O)CN2CCC(n3c(=O)[nH]c4ccccc43)CC2)n(Cc2ccco2)c1C [Compound Z126941634] | 9% | –
32 | COc1cc(/C=C/C(=O)N2CCCC2c2c(C)nn(C)c2C)cc(Br)c1O (stereo not shown) [Compound Z1634598040] | 41% | –
33 | CCNC(=O)CN(CC)S(=O)(=O)c1cnn(-c2ccc(F)cc2)c1C [Compound Z1403244361] | 2% | –
34 | CNC(=O)c1cnc(/C=C/c2cccnc2)s1 [Compound Z1029489284] | 5% | –
35 | CC(C)(C)c1ncc(C(=O)Nc2ccc(F)c(NC(=O)C3CC3)c2)s1 [Compound Z825945954] | -24% | –
36 | Cc1ccc(-n2c(-c3ccccc3)cn3c4c(=O)n(CCN5CCOCC5)c(=O)n(C)c4nc23)cc1 [Compound Z237731508] | 14% | –
37 | CC(C)C(=O)N1CCC(Nc2ncnc3c2cnn3CCC#N)CC1 [Compound Z990868196] | -8% | –
38 | CNC(=O)NC(=O)COC(=O)c1cc(-c2ccccc2)nc2c1cnn2Cc1ccccc1 [Compound Z228518838] | -8% | –
39 | Cc1nnc(COC(=O)c2cc(-c3ccccc3)nc3c2cnn3C(C)C)o1 [Compound Z51550903] | -3% | –
40 | CC1CC(C)CN(S(=O)(=O)c2ccccc2S(C)(=O)=O)C1 (stereo not shown) [Compound Z285665176] | 55% | –

Next, values leading:

Row | First screening IR (inhibition rate) | Second screening IR (inhibition rate) (second screening, dissolved from fresh powder, n = 4) | SMILES
41 | 11% | – | Cc1ccc(C(C)C)c(OCC(=O)NC(C)c2ccc(-n3ccnc3)cc2)c1 (stereo not shown) [Compound Z27307326]
42 | 43% | – | Cc1cc(Br)ccc1SCC(=O)OC/C(O)=C(\C#N)c1nc2ccccc2[nH]1 [Compound Z18738204]
43 | -4% | – | Cc1cccc(OCCCNC(=O)c2ccc3nc[nH]c3c2)c1 [Compound Z168616264]
44 | -8% | – | CON(C)C(=O)c1cc(-c2ccccc2)nc2c1cnn2Cc1ccncc1 [Compound Z109300154]
45 | 5% | – | CCC(C)(C)C1C/C(=C/c2cc(Br)c(O)c(OC)c2)c2nc3ccccc3c(C(=O)O)c2C1 (stereo not shown) [Compound Z46116622]
46 | -3% | – | Cc1ccccc1-n1c(SCC(=O)Nc2ccc(N3CCOCC3)cc2)nnc1-c1ccncc1 [Compound Z19446050]
47 | 14% | – | Cc1ccccc1-c1cc(C(N)=O)c2cnn(C(C)C)c2n1 [Compound Z229615400]
48 | -3% | – | Cc1ccccc1/C=C1/CC(C)Cc2c1nc1ccccc1c2C(=O)O (stereo not shown) [Compound Z46107859]
49 | 7% | – | O=C(O)c1cc(-c2ccccc2)nc2c1cnn2Cc1ccccc1Cl [Compound Z223844412]
50 | 37% | – | CC(C)n1ncc2c(C(=O)Nc3ccccc3F)cc(-c3ccco3)nc21 [Compound Z216407296]
51 | 3% | – | O=C(Nc1nnc(SCc2ccc(F)cc2)s1)c1cccnc1Cl [Compound Z28653555]
52 | -8% | – | CC(C)c1ccc(S(=O)(=O)NC(C)c2ccc(-n3ccnc3)cc2)cc1 (stereo not shown) [Compound Z45488257]
53 | 0% | – | Cc1ccc(-c2cc(-c3cccc(Br)c3)nc3ccccc23)cc1 [Compound Z1847669462]
54 | 38% | – | COc1cc(Cl)c(C)cc1NC(=O)CN(Cc1ccco1)S(=O)(=O)c1cccc(Cl)c1 [Compound Z25969255]
55 | -4% | – | N#Cc1ccc(-c2cc(-c3ccccc3)c3cc(Br)ccc3n2)cc1 [Compound Z415722772]
56 | 45% | – | COc1ccc(CN2CCN(Cc3c(-c4ccccc4)nc4ccccn34)CC2)cc1OC [Compound Z89207636]
57 | 3% | – | COc1cc(C(=O)NCCc2ccc(-n3cccn3)cc2)ccc1C [Compound Z223337292]
58 | -7% | – | O=C(Nc1c[nH]ccc1=O)c1ccc2c(c1)CC(c1ccccc1)OC2=O (stereo not shown) [Compound Z649184702]
59 | 26% | -17% | COc1ccc(/C=N/Nc2ccnc3cc(Cl)ccc23)cc1O [Compound Z49625943]
60 | -7% | – | Cc1cc(OCC(=O)NC(C)c2ccc(-n3ccnc3)cc2)ccc1C(C)C (stereo not shown) [Compound Z27305591]
61 | 8% | – | N#C/C(=C(/O)COC(=O)c1cc(F)c(F)cc1Cl)c1nc2ccccc2[nH]1 [Compound Z18771813]
62 | 1% | – | Cc1ccc(C)c(C(=O)CCC(=O)NC(C)c2nc3ccccc3[nH]2)c1 (stereo not shown) [Compound Z195395734]
63 | -10% | – | O=C(Nc1nc2c(s1)CN(Cc1ccccc1)CC2)c1cc(-c2ccco2)[nH]n1 [Compound Z317663344]
64 | 4% | – | Cc1cccc(C(C)C)c1NC(=O)CSc1nc2ccc(Cl)cc2[nH]1 [Compound Z16257955]
65 | 60% | – | COc1ccc(C)cc1C(C)NC(=O)CCc1nc2ccccc2[nH]1 (stereo not shown) [Compound Z197873940]
66 | 46% | – | O=C(CSc1nc2ccccc2c(=O)n1CCCN1CCOCC1)Nc1ccc2ccccc2c1 [Compound Z19837911]
67 | -16% | – | COc1cc(/C=C(\C#N)C(=O)NC2CCCCC2)ccc1OCC(=O)Nc1ccc(Br)cc1 [Compound Z44319326]
68 | 8% | – | CC(C)(CNC(=O)c1cccc(N2CC(O)=C(c3nc4ccccc4s3)C2=N)c1)N1CCOCC1 [Compound Z32220177]
69 | 30% | – | CCCc1cc(=O)oc2cc(OCC(=O)N(C)CC3COc4ccccc4O3)ccc12 (stereo not shown) [Compound Z97092537]
